Measured values published in patent publication US8969004B2, “Detection of immobilized nucleic acid” (Life Technologies Corporation, priority 2004, dated 2015).
Entries after “also recorded” stand apart in the source; their conditions may differ. Where two headings read alike, the source gives them in different places.

What was measured:
[1] = tested on: fathead minnows (Pimephakes promelas); test: Hazardous Waste Screening Test (toxicity to aquatic life); format: in vivo
Experimental: (§1) Compound 1 was tested to determine whether or not the compound was hazardous or toxic to aquatic life. Ten fathead minnows (Pimephakes promelas) were placed each in a 8 liter tank containing vehicle control and a concentration of Compound 1 at 250 mg/L, 500 mg/L and 750 mg/L. After a 96 hour exposure period the number of viable minnows were counted. The survival rate of the minnows for the control and Compound 1 was 100%. Thus, compound 1 has a LC50 value […], which is classified as not hazardous under CCR Title 22 acute toxicity to aquatic life.

[2] = as above; format: in vivo, Pimephakes promelas; conditions: fathead minnow (Pimephakes promelas), in vivo, other: exposure in tank water containing the compound; fathead minnows; 96 hour exposure
Experimental: as §1

[3] = NPDES testing for compliance with the Clean Water Act
Experimental: The testes were performed according to EPA protocols cited in Table 9.

[4] = tested on: MRC5 human lung fibroblast cells; test: Cell Permeability on Live Eukaryotic Cells; format: cell-based; conditions: 0.5, 1.0, 5.0 and 10.0 μM; 5 minutes at 37° C.; fluorescence microscopy
Experimental: MRC5 human lung fibroblast cells were harvested and grown in complete culture media (DMEM+10% FBS) for one day after seeding coverslips. Cells were then removed from complete media and placed in Hank's balanced salt solution w/sodium bicarbonate (HBSS) supplemented with 5 mM HEPES, 100 uM L-glutamine and 100 uM succinate containing varying concentrations of Compound 1. Concentrations tested included 0.5, 1.0, 5.0 and 10.0 μM. Cells were incubated for 5 minutes at 37° C./[…] Cells were washed 3×30 seconds in HBSS and mounted on microscope slides in HBSS and sealed with paraffin. After mounting, slides were examined on a Nikon Eclipse 800 upright fluorescent microscope and imaged with standard FITC and TRITC filter sets, a Princeton Instrument MicroMax cooled CCD camera, and Universal Imaging MetaMorph imaging software. […] Signal associated with Compound 1 is detectable with both FITC and TRITC filter sets with greater signal intensity using the FITC set. Regardless of concentration, nucleolar labeling seems to be the most prominent and appears to become slightly more prominent at lower concentrations. Off cell background was minimal in all cases.

[5] = tested on: Salmonella typhimurium histidine auxotrophs TA97a, TA98, TA100, TA102, TA1535, TA1537 and TA1538; test: Salmonella/Mammalian Microsomal Reverse Mutation Assay (Ames Test); format: cell-based; conditions: for Ames test mutagenicity classification, early screens: early screens of nucleic acid complexing compounds; for increase in revertants compared to vehicle control (DMSO), TA97a: tester strain TA97a; for increase in revertants compared to vehicle control (DMSO), TA98: tester strain TA98; for increase in revertants compared to vehicle control (DMSO), TA100: tester strain TA100; for increase in revertants compared to vehicle control (DMSO), TA102: tester strain TA102; for increase in revertants compared to vehicle control (DMSO), TA1535: tester strain TA1535; for increase in revertants compared to vehicle control (DMSO), TA1537: tester strain TA1537; for increase in revertants compared to vehicle control (DMSO), TA1538: tester strain TA1538
Experimental: The Ames assay was performed using the method described by Ames (Ames et al Mutation Research 31 (1975) 347-364; Levin et al. PNAS 79 (1982) 7445-7449; Maron and Ames, Mutation Research 113 (1983) 173-215). Tester stains used were Salmonella typhimurium histidine auxotrophs TA97a, TA98, TA100, TA102, TA1535, TA1537 and TA1538. […] The test compounds, test vehicle and S9 (when appropriate) were combined with molten agar and then overlaid over a minimal agar plate. Following incubation at 37° C., revertant colonies were counted. When S9 was not used, 100 μl of tester strain and 50 μl of control or test compound were added to 2.5 ml of selective top agar. When S9 was used, 500 μl of S9 mix, 100 μl of tester strain and 50 μl of control or test compound was added to 2.0 ml of selective top agar. The top agar was then overlaid onto the surface of 25 ml of minimal bottom agar contained in a 15×100 mm Petri dish. The inverted plates were incubated for 52±4 hr at 37±2° C.
The number of revertants was counted and the test compounds were either considered non-mutagenic or mutagenic. The criteria for determining if a test compound was mutagenic was based on a 2-fold increase in mean revertants per plate for at least one tester strain (TA97a, TA98, TA100 and TA102) over the mean revertants per plate of the appropriate vehicle control. For tester strains TA1535, TA1537 and TA 1538 a positive mutant was identified by a 3-fold increase in mean revertants per plate compared to the appropriate vehicle control. In addition, the increase in the mean number of revertants per plate needed to be accompanied by a dose response to increasing concentrations of the test compound. […] Thiazole orange was also considered mutagenic for two of the tester strains in the absence of S9. Thus, compared to ethidium bromide, thiazole orange is 3-4 times less mutagenic and Compound 1 is 4-5 times less mutagenic. Ethidium bromide and Sybr Green I had previously been tested wherein Sybr Green I was considered a weak mutagen (Singer et al. Mutation Research 439 (1999) 37-47).

[6] = tested on: Syrian hamster embryo (SHE) cells; conditions: for MT Frequency (%) / RPE (relative plating efficiency): Syrian hamster, 7 day
[7] = tested on: DNA in a 1% agarose gel; test: Detection of DNA separated and immobilized in an agarose gel; conditions: for ability to detect nucleic acid immobilized in a gel by electrophoresis: excited with UV light, about 300 nm
[8] = tested on: cultured human lymphocytes; test: Screening Assay for Chromosomal Aberrations in Cultured Human Peripheral Blood Mononuclear Cells (PBMC); format: cell-based
Experimental: Human venous blood from healthy adult volunteers was drawn in heparinized vacutainers. The whole blood cultures were initiated in 15 ml centrifuge tubes by adding approximately 0.3 ml of fresh heparinized blood into a sufficient volume of culture medium, to that the final volume was 5 mL in the assay with and without metabolic activation after the addition of the test compound. The culture medium was RPMI 1640 supplemented with approximately 20% heat-inactivated fetal bovine serum (FBS), penicillin (100 units/mL), streptomycin (100 μg/mL), L-glutamine (2 mM) and 2% phytohemagglutinin M (PHA-M). The cultures were incubated with loose caps at 37° C.±2° C. in a humidified chamber of approximately 5% CO2 in air.
The in vitro metabolic activation system consisted of a rat liver post-mitochondrial fraction (S9) and an energy-producing system (NADPH plus isocitric acid) (Maron and Ames, 113 Mutation Research (1983) 173-215).
Two days after culture initiation, the cultures were treated with the test compounds. […]
At the end of the incubation period the cultures were centrifuged, the supernatant discarded, and the cells swollen with 75 mM KCl, fixed in methanol:glacial acetic acid (3:1 v/v), dropped onto glass slides and air dried. The slides were stained with 5% Giemsa and air dried and then analyzed for mitotox index, chromosomal aberrations including polyploidy and endoreduplication.

[9] = tested on: Syrian hamster embryo (SHE) cells; test: In Vitro Transformation of Syrian Hamster Embryo (SHE) Cells by 7-Day Exposure Screening Assay
[10] = tested on: Salmonella typhimurium histidine auxotrophs TA97a, TA98, TA100, TA102, TA1535, TA1537 and TA1538; conditions: cited from earlier work
[11] = in the presence of S9 (rat liver extract)

Compound	Ames test mutagenicity classification, early screens [5]	Ames test mutagenicity classification [5, 11]	increase in revertants compared to vehicle control (DMSO), TA97a [5]	increase in revertants compared to vehicle control (DMSO), TA98 [5]	increase in revertants compared to vehicle control (DMSO), TA100 [5]	increase in revertants compared to vehicle control (DMSO), TA102 [5]	increase in revertants compared to vehicle control (DMSO), TA1535 [5]	increase in revertants compared to vehicle control (DMSO), TA1537 [5]	increase in revertants compared to vehicle control (DMSO), TA1538 [5]	RPE (relative plating efficiency) ([6]; 0.04 μg/mL)	RPE (relative plating efficiency) ([6]; 0.26 μg/mL)	ability to detect nucleic acid immobilized in a gel by electrophoresis [7]	further results
CCC[n+]1ccc(/C=C2\Sc3ccccc3N2C)c2ccccc21 [Compound 1]	either mildly mutagenic or non-mutagenic	mild or non-mutagenic; also recorded: Weakly positive	3.3	3.0	1.7	3.7	1.8	1.8	3.7	97%	25%	able to detect nucleic acid	survival rate of the minnows ([1]; 250 mg/L, 500 mg/L and 750 mg/L, 96 hour exposure): 100%; hazard classification, acute toxicity to aquatic life ([1]; CCR Title 22): not hazardous; also recorded: non-hazardous to aquatic life; LC50 at 96 h [2]: > 500 µg/mL; compliance with the Clean Water Act and NPDES regulations [3]: complies; cell permeability in live cells [4]: cell permeable; times less mutagenic compared to ethidium bromide ([5]; Ames test): 4-5 times; MT Frequency (%) ([6]; 0.04 μg/mL): 0.731%; MT Frequency (%) ([6]; 0.05 μg/mL): 0.442%; RPE (relative plating efficiency) ([6]; 0.05 μg/mL): 120%; MT Frequency (%) ([6]; 0.2 μg/mL): 0.313%; RPE (relative plating efficiency) ([6]; 0.2 μg/mL): 85%; MT Frequency (%) ([6]; 0.26 μg/mL): 0.294%; MT Frequency (%) ([6]; 0.3 μg/mL): 0.144%; RPE (relative plating efficiency) ([6]; 0.3 μg/mL): 59%; MT Frequency (%) ([6]; 0.4 μg/mL): 1.304%; RPE (relative plating efficiency) ([6]; 0.4 μg/mL): 66%; MT Frequency (%) ([6]; 0.8 μg/mL): 0.635%; RPE (relative plating efficiency) ([6]; 0.8 μg/mL): 28%; sensitivity of nucleic acid detection in a gel ([7]; 1% agarose gel, post-stained 30, 60 and 90 minutes, 1 μM in TBE, 62.5 ng to 30.52 pg DNA): at least as sensitive as ethidium bromide
CC[n+]1c(-c2ccccc2)c2cc(N)ccc2c2ccc(N)cc21 [Ethidium bromide, ethidium bromide]		mutagenic	4.4	68.0	1.6	2.0	1.4	15	80				Chromosomal Aberrations Test, cultured human peripheral blood lymphocytes: result ([8]; with and without S9 metabolic activation): negative; RPE (relative plating efficiency) ([9]; 0.200 μg/mL): 85%; RPE (relative plating efficiency) ([9]; 0.400 μg/mL): 66%; RPE (relative plating efficiency) ([9]; 0.800 μg/mL): 28%; Transformation Test, Syrian hamster embryo (SHE) cells: result ([9]; morphological transformation vs vehicle control): positive; Ames test mutagenicity classification (previously tested, literature) ([10]; McCann et al. 1975, Singer et al. 1999): mutagenic
CCCN(CCCN(C)C)c1cc(/C=C2/Sc3ccccc3N2C)c2ccccc2[n+]1-c1ccccc1 [Sybr Green I]													Ames test mutagenicity classification (previously tested, literature) [10]: weak mutagen
CN1C=C/C(=C\c2sc3ccccc3[n+]2C)c2ccccc21 [Thiazole orange, thiazole orange]	either mildly mutagenic or non-mutagenic	mutagenic	6.9	6.4	2.2	4.7	1.5	17.4	7.8	97%	25%	able to detect nucleic acid	Chromosomal Aberrations Test, cultured human peripheral blood lymphocytes: result [8]: negative; Ames test mutagenicity classification ([5]; in the absence of S9, two of the tester strains): mutagenic; Transformation Test, Syrian hamster embryo (SHE) cells: result [6]: positive; RPE (relative plating efficiency) ([6]; 0.15 μg/mL): 52%
